The text below walks through data of patent US20180064659A1, “AGENTS USEFUL FOR TREATING OBESITY, DIABETES AND RELATED DISORDERS” (The Regents of the University of California, priority 2015, published 2018).

Molecules are shown by their SMILES.

Experiment [1] has as its system Erk activation in FL83B mouse liver cells. Description: Western blot of phospho-Erk activation in FL83B cells. Type of experiment: cell-based. From the text:
(§1) Western blot protocol of phospho-Akt (columns 2-4) and phospho-Erk (columns5-7). As explained above and in Example 4, Western blots of phospho-Akt and phospho-Erk are a more accurate and precise and quantitative measure of Akt phosphorylation than ICWB measurements. Insulin-dependent phospho-Akt is a direct measurement of insulin sensitivity, and we expect that Shc inhibitors will stimulate phospho-Akt more than phospho-Erk. All of the drugs listed in FIG. 5A stimulated insulin-dependent phospho-Akt at some concentration. Method. Mouse liver cells FL83B were plated at density of 400.000 cells per well of 6 well pate and cultivated for 48 hours, media was changed to DMEM, 25 mM glucose serum free and 16 hours later the cells were treated with drug at the indicated concentration for one hour. Control wells were treated with the vehicle (DMSO), in certain control wells the metabolic (Akt) insulin signaling was blocked with wortmannin. The cells were induced with indicated concentration of insulin for 10 minutes, total protein was extracted and the Western Blots were performed with indicated antibody as described above. […]

A further experiment concerns the target T1, Shc-PTB domain (Homo sapiens, UniProt P29353).
T1 sequence (P29353 1-473 isoform P29353-2): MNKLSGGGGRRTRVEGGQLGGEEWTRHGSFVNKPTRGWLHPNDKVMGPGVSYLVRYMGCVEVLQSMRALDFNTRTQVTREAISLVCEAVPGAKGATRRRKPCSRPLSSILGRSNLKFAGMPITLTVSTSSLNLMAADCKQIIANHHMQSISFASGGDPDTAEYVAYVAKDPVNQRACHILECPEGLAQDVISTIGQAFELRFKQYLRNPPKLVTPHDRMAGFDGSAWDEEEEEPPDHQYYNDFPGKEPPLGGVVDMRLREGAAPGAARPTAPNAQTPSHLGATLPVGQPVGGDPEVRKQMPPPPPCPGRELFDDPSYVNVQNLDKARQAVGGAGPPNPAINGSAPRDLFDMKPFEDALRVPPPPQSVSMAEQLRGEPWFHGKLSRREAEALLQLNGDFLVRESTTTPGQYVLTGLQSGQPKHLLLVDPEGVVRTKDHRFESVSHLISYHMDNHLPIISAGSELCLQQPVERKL
Kind of experiment: Octet RED 384 binding to p52Shc protein (p52Shc lacking PTB domain as reference). The settings on record: for EC50: 10 pM to 100 uM, Octet RED 384. On the procedure: Sensogramms were obtained, and response [nm] for each concentration was plotted against log concentration of idebenone. Sigmoidal, variable slope fitting analysis was performed using GraphPad Prism Software (GraphPad Software, Inc., La Jolla, Calif.). […] Cells were stimulated with 0.2 nM insulin for 10 minutes, and Western analyzed for induction of Akt and ERK. Insulin dependent activation of Akt is presented as fold change over vehicle control, and plotted against log concentration of idebenone; tubulin signal was used for normalization between biological samples. Sigmoidal dose-response (variable slope) fitting analysis was performed, EC50, hill slope, and top response were identified, as described above, and are indicated on the graph. p-value was calculated by testing R^2 for significance for N=65. […] Idebenone at indicated dose was given to animals 30 minutes before dark phase for five days. At the day of Insulin Tolerance Test (ITT) additional dose of idebenone was given to animals two hours prior to insulin injection. For ITT, the food was deprived at 7 am (the beginning of light phase), basal glucose was measured at 11 am, and insulin was administrated at 0.8 U/kg dose; blood glucose was recorded and expressed as % of baseline, and plotted against time. […] Software (CambridgeSoft Corporation, Waltham, Mass.), and virtually docked to Shc-PTB using iGEMDOCK software (BioXGEM Lab, National Chiao-Tung University Hsinchu, Taiwan, R.O.C), and, MOL file was generated. Three dimensional structure of PTB domain of Shc was obtained from Protein Data Bank (http://www.rcsb.org/).
FIGS. 9A-E illustrate that SrcI-1 binds into PTB domain of Shc protein. […] Sensograms were obtained and shown. […] Sigmoidal, variable slope fitting analysis was performed; EC50, hill slope, and top response were identified, and indicated. p-value was calculated by testing R^2 for significance for N=24; SrcI-1 was binding to Shc-PTB domain with EC50 of 3 μM.
FIGS. 11A-F illustrate details of interaction of idebenone analogs, idebenone and SrcI-1 with Shc protein. […]

Another experiment has as its system phospho-Shc. Description: Western blot of phospho-Shc. Type of experiment: cell-based. How it is done: Assays to identify compounds useful for preventing, reducing, delaying or inhibiting symptoms of impaired insulin sensitivity, glucose intolerance or obesity can be performed in vitro. Candidate agents can be contacted with a population of test cells in the presence of insulin (e.g., 1 nM, 5 nM, 10 nM, 100 nM or more). An agent that prevents, reduces, delays or inhibits one or more symptoms of impaired insulin sensitivity, glucose intolerance or obesity increases the ratio of levels of phospho-Akt-1 over phospho-Erk relative to a control ratio. The increase in ratio of levels of phospho-Akt-1 over phospho-Erk can be determined in comparison to a control population of cells that have not been contacted with insulin or have been contacted with a low concentration of insulin (e.g., less than 0.1 nM) or a population of cells contacted with insulin but not with the compound under test. Ratio of levels of phospho-Akt-1 over phospho-Erk can be determined using a Western blot among other methods. Inhibition of Shc activity can be quantitatively measured by assaying the reduction of stimulatory Shc phosphorylation, using a phospho-Shc specific antibody. Inhibition of Shc expression can be measured using a Western blot. […]

The subject of experiment [2] is insulin-dependent activation of Akt in FL83B mouse liver cells. Kind of experiment: Western blot of insulin-dependent phospho-Akt activation in FL83B cells. In kind it is cell-based. The settings on record: for Insulin-dependent P-Akt signaling: Western blot.
Text: as §1
Sensogramms were obtained, and response [nm] for each concentration was plotted against log concentration of idebenone. […] Cells were stimulated with 0.2 nM insulin for 10 minutes, and Western analyzed for induction of Akt and ERK. […] Sigmoidal dose-response (variable slope) fitting analysis was performed, EC50, hill slope, and top response were identified, as described above, and are indicated on the graph. p-value was calculated by testing R^2 for significance for N=65. […] For ITT, the food was deprived at 7 am (the beginning of light phase), basal glucose was measured at 11 am, and insulin was administrated at 0.8 U/kg dose; blood glucose was recorded and expressed as % of baseline, and plotted against time. […]

`COc1cc2ncnc(Nc3ccc(Oc4ccccc4)cc3)c2cc1OC` [SrcI-1]: in experiment [1], the Erk activation result was “decreased Erk activation” and the P-Akt/P-Erk ratio entry is given as “increasing the P-Akt/P-Erk ratio”. The EC50 at Shc-PTB domain (24 point titration) was 3000 nM. Moreover, the “Binding to Shc-PTB” value on Shc-PTB domain (Octet RED 384 sensograms) is listed as “binding to Shc-PTB in dose-dependent fashion”. For the same molecule, the phospho-Shc activation entry in the experiment on phospho-Shc was “inhibited phospho-Shc activation in dose-dependent manner”. Also, in experiment [2], the “Insulin-dependent P-Akt signaling” value was “stimulates insulin-dependent P-Akt signaling”.

In the case of `COC1=C(OC)C(=O)C(CCCCCCCCCCO)=C(C)C1=O` [idebenone], the EC50 is 1.2 nM on Shc-PTB domain (48 point titration) and 3.3 nM in experiment [2] (Mus musculus, drug 1 hour, 0.2 nM insulin for 10 minutes, 65 points, read-out: EC50 of sensitizing cells to insulin (insulin dependent activation of Akt)). In addition, in the experiment with phospho-Shc, the phospho-Shc activation entry is listed as “decreased phospho-Shc in a dose-dependent manner”. Besides, the “Insulin-dependent P-Akt signaling” value in experiment [2] is on record as “increased insulin-dependent phospho-Akt activation in a dose-dependent manner”.
